Test results from article doi:10.1101/2024.06.07.597859v1 (biorxiv, 2024).
pKd: −log10 of the molar value.

Target: T1, PfTSEN1 (Plasmodium falciparum, UniProt A0A144A1E9)
T1 sequence (A0A144A1E9 1-220): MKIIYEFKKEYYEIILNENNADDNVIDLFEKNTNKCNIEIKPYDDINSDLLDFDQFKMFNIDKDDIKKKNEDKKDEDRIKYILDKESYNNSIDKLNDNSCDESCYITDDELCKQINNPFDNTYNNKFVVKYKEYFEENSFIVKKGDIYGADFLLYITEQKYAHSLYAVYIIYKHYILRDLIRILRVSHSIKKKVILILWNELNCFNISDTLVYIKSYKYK
Assay: microscale thermophoresis
Assay type: binding

NCCCn1ccc2c1C(=O)c1cccnc1C2=O [TSENi, 1-(3-aminopropyl)-1H-pyrrolo[2,3-f]quinoline-4,9-dione]
pKd: 6.02
